Test results reported in article PMC2939254 (Neuroscience, 2010).
Like-named read-outs stand apart in the source and are kept apart here.

What was measured:
[1] = system: NR1a/NR2A NMDAR expressed in HEK293 cells; assay type: cell-based, rat; conditions: pH 7.35
[2] = system: NR1b/NR2B NMDAR expressed in HEK293 cells; assay type: cell-based, rat; conditions: pH 7.35
[3] = system: NR1b/NR2A NMDAR expressed in HEK293 cells; assay type: cell-based, rat; conditions: pH 7.35
[4] = system: NR1a/NR2B NMDAR expressed in HEK293 cells; assay type: cell-based, rat; conditions: pH 7.35
[5] = system: NR2A-containing NMDAR complexes; assay type: cell-based, rat
NR2B-containing NMDAR = assay type: cell-based, rat
[6] = system: NR1a/NR2A NMDAR expressed in HEK293 cells; conditions: cited from earlier work
[7] = system: NR1b/NR2A NMDAR expressed in HEK293 cells; conditions: cited from earlier work
[8] = system: NR1a/NR2B NMDAR expressed in HEK293 cells; conditions: cited from earlier work
[9] = system: NR1b/NR2B NMDAR expressed in HEK293 cells; conditions: cited from earlier work

GEγγLAKNA AγLARγNI(NH2) [con-R′ [V5L/ΔA10]]
% maximal inhibition, 1a/2A [1]: 0% | % maximal inhibition, 1b/2B [2]: 71 ± 3% | % maximal inhibition, 1b/2A [3]: 0% | % maximal inhibition, 1a/2B [4]: 69 ± 4%

GEγγLQANQγLIRγKSN(NH2) [con-G[γ7A]]
% maximal inhibition, 1a/2A [1]: 0% | % maximal inhibition, 1b/2B [2]: 95 ± 3% | % maximal inhibition, 1b/2A [3]: 0% | % maximal inhibition, 1a/2B [4]: 90 ± 4%

GEγγLQKMLγNLRγAEVKKNA(NH2) [con-T[Y5L]]
% maximal inhibition, 1a/2A [1]: 80 ± 6% | % maximal inhibition, 1b/2B [2]: 90 ± 6% | % maximal inhibition, 1b/2A [3]: 86 ± 7% | % maximal inhibition, 1a/2B [4]: 85 ± 3%

GEγγLQKNQγLIRγKSN(NH2) [con-G[γ7K]]
% maximal inhibition, 1a/2A [1]: 0% | % maximal inhibition, 1b/2B [2]: 94 ±2% | % maximal inhibition, 1b/2A [3]: 0% | % maximal inhibition, 1a/2B [4]: 82 ± 5%

GEγγLQγNQγNLRγAEVKKNA(NH2) [con-G/T]
% maximal inhibition, 1a/2A [1]: 0% | % maximal inhibition, 1b/2B [2]: 86 ± 4% | inhibition of NR2A-containing NMDAR complexes [5]: no inhibition | % maximal inhibition, 1b/2A [3]: 0% | % maximal inhibition, 1a/2B [4]: 80 ± 5% | maximal inhibition of NR2B-containing NMDAR (NR2B-containing NMDAR): > 80%

GEγγVAAMAAγLARγNI(NH2) [con-R′ [K7A]]
% maximal inhibition, 1a/2A [1]: 93 ± 3% | % maximal inhibition, 1b/2B [2]: 95 ± 2% | % maximal inhibition, 1b/2A [3]: 93 ± 4% | % maximal inhibition, 1a/2B [4]: 91 ± 3%

GEγγVAKAAAγLARγNI(NH2) [con-R′ [M8A]]
% maximal inhibition, 1a/2A [1]: 0% | % maximal inhibition, 1b/2B [2]: 88 ± 4% | % maximal inhibition, 1b/2A [3]: 0% | % maximal inhibition, 1a/2B [4]: 85 ± 3%

GEγγVAKMA AγLARγNI(NH2) [con-R′ [ΔA10]]
% maximal inhibition, 1a/2A [1]: 0% | % maximal inhibition, 1b/2B [2]: 65 ± 5% | % maximal inhibition, 1b/2A [3]: 0% | % maximal inhibition, 1a/2B [4]: 55 ± 6%

GEγγVAKNAAγLARγNI(NH2) [con-R′ [M8N]]
% maximal inhibition, 1a/2A [1]: 45 ± 6% | % maximal inhibition, 1b/2B [2]: 66 ± 5% | % maximal inhibition, 1b/2A [3]: 60 ± 7% | % maximal inhibition, 1a/2B [4]: 53 ± 5%

GEγγVQKMAAγLARγNI(NH2) [con-R′ [A6Q]]
% maximal inhibition, 1a/2A [1]: 50 ± 7% | % maximal inhibition, 1b/2B [2]: 90 ± 4% | % maximal inhibition, 1b/2A [3]: 72 ± 6% | % maximal inhibition, 1a/2B [4]: 84 ± 5%

GEγγVQKMQAγLARγNI(NH2) [con-R′ [A6Q/A9Q]]
% maximal inhibition, 1a/2A [1]: 0% | % maximal inhibition, 1b/2B [2]: 79 ± 5% | % maximal inhibition, 1b/2A [3]: 25 ± 5% | % maximal inhibition, 1a/2B [4]: 70 ± 6%

GEγγYAKNA AγLARγNI(NH2) [con-R′ [V5Y/ΔA10]]
% maximal inhibition, 1a/2A [1]: 82 ± 6% | % maximal inhibition, 1b/2B [2]: 90 ± 3% | % maximal inhibition, 1b/2A [3]: 84 ± 4% | % maximal inhibition, 1a/2B [4]: 87 ± 5%

GEγγYQAMLγNLRγAEVKKNA(NH2) [con-T[K7A]]
% maximal inhibition, 1a/2A [1]: 93 ± 2% | % maximal inhibition, 1b/2B [2]: 94 ± 2% | % maximal inhibition, 1b/2A [3]: 91 ± 3% | % maximal inhibition, 1a/2B [4]: 85 ± 5%

GEγγYQKALAγNLRγAEVKKNA(NH2) [con-T[M8A/+A10]]
% maximal inhibition, 1a/2A [1]: 0% | % maximal inhibition, 1b/2B [2]: 67 ± 5% | % maximal inhibition, 1b/2A [3]: 0% | % maximal inhibition, 1a/2B [4]: 63 ± 4%

GEγγYQKALγNLRγAEVKKNA(NH2) [con-T[M8A]]
% maximal inhibition, 1a/2A [6]: 0% | % maximal inhibition, 1b/2A [7]: 0% | % maximal inhibition, 1a/2B [8]: 73 ± 8% | % maximal inhibition, 1b/2B [9]: 81 ± 5%

GEγγYQKGLγNLRγAEVKKNA(NH2) [con-T[M8G]]
% maximal inhibition, 1a/2A [1]: 0% | % maximal inhibition, 1b/2B [2]: 84 ± 4% | % maximal inhibition, 1b/2A [3]: 0% | % maximal inhibition, 1a/2B [4]: 80 ± 5%

GEγγYQKMAγNLRγAEVKKNA(NH2) [con-T[L9A]]
% maximal inhibition, 1a/2A [1]: 93 ± 2% | % maximal inhibition, 1b/2B [2]: 95 ± 2% | % maximal inhibition, 1b/2A [3]: 91 ± 3% | % maximal inhibition, 1a/2B [4]: 92 ± 5%

GEγγYQKNLγNLRγAEVKKNA(NH2) [con-T[M8N]]
% maximal inhibition, 1a/2A [6]: 48 ± 6% | % maximal inhibition, 1b/2A [7]: 56 ± 7% | % maximal inhibition, 1a/2B [8]: 82 ± 5% | % maximal inhibition, 1b/2B [9]: 90 ± 4%

GEγγYQγMLγNLRγAEVKKNA(NH2) [con-T[K7γ]]
% maximal inhibition, 1a/2A [1]: 78 ± 4% | % maximal inhibition, 1b/2B [2]: 90 ± 2% | % maximal inhibition, 1b/2A [3]: 82 ± 6% | % maximal inhibition, 1a/2B [4]: 86 ± 5%
